Laboratory results reported in ChEMBL document CHEMBL1201862, “PubChem BioAssay data set” (2004).
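96-well plates; 48 h exposure; 5 concentrations. Endpoints by linear interpolation between flanking doses. Not reached: highest tested concentration assigned. At the GI50, growth is halved.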 Calls of active or inactive are those of the source. No stated cut-off is given here; in the data, active = GI50 up to about 1.1 µM and inactive = higher.

How the values were obtained:
Assay in all cases: growth of human tumour cells (NCI), 48 h
[1] = test system: A549
[2] = test system: HOP-62
[3] = test system: NCI-H522
[4] = test system: SK-OV-3
[5] = test system: UACC-257
[6] = test system: SNB-19
[7] = test system: COLO 205
[8] = test system: NCI-H460
[9] = test system: SW-620
[10] = test system: KM12
[11] = test system: UACC-62
[12] = test system: PC-3
[13] = test system: NCI-H226
[14] = test system: HCT-116
[15] = test system: SK-MEL-28
[16] = test system: K562
[17] = test system: OVCAR-3
[18] = test system: HCC 2998
[19] = test system: M14
[20] = test system: ACHN
[21] = test system: SK-MEL-2
[22] = test system: T47D
[23] = test system: MCF7
[24] = test system: EKVX
[25] = test system: U-251
[26] = test system: TK-10
[27] = test system: A498
[28] = test system: HCT-15
[29] = test system: SNB-75
[30] = test system: IGROV-1
[31] = test system: SN12C
[32] = test system: SF-295
[33] = test system: SF-268
[34] = test system: OVCAR-4
[35] = test system: Malme-3M
[36] = test system: OVCAR-5
[37] = test system: RXF 393
[38] = test system: BT-549
[39] = test system: SR
[40] = test system: HL-60
[41] = test system: MDA-N
[42] = test system: HOP-92
[43] = test system: RPMI-8226
[44] = test system: Hs-578T
[45] = test system: DU-145
[46] = test system: MOLT-4
[47] = test system: SF-539
[48] = test system: CAKI-1
[49] = test system: MDA-MB-435
[50] = test system: SK-MEL-5
[51] = test system: UO-31
[52] = test system: MDA-MB-231
[53] = test system: OVCAR-8
[54] = test system: NCI/ADR-RES
[55] = test system: CCRF-CEM
[56] = test system: 786-0
[57] = test system: NCI-H23
[58] = test system: HT-29
[59] = test system: LOX IMVI

CCN(CC)CCN1C(=O)c2cccc3cc(N)cc(c23)C1=O
GI50 [1]: 5.57 µM (inactive) | GI50 [2]: 5.45 µM (inactive) | GI50 [3]: 6.43 µM (inactive) | GI50 [4]: 8.53 µM (inactive) | GI50 [5]: 10.7 µM (inactive) | GI50 [6]: 13.6 µM (inactive) | GI50 [7]: 4.41 µM (inactive) | GI50 [8]: 3.98 µM (inactive) | GI50 [9]: 4.91 µM (inactive) | GI50 [10]: 9.73 µM (inactive) | GI50 [11]: 11.8 µM (inactive) | GI50 [12]: 16.1 µM (inactive) | GI50 [13]: 16.6 µM (inactive) | GI50 [14]: 4.16 µM (inactive) | GI50 [15]: 19.3 µM (inactive) | GI50 [16]: 5.98 µM (inactive) | GI50 [17]: 12.7 µM (inactive) | GI50 [18]: 8.61 µM (inactive) | GI50 [19]: 13.3 µM (inactive) | GI50 [20]: 4.94 µM (inactive) | GI50 [21]: 18.9 µM (inactive) | GI50 [22]: 18.7 µM (inactive) | GI50 [23]: 4.39 µM (inactive) | GI50 [24]: 5.02 µM (inactive) | GI50 [25]: 9.48 µM (inactive) | GI50 [26]: 17.9 µM (inactive) | GI50 [27]: 19.1 µM (inactive) | GI50 [28]: 5.43 µM | GI50 [29]: 15.8 µM (inactive) | GI50 [30]: 7.59 µM (inactive) | GI50 [31]: 4.31 µM (inactive) | GI50 [32]: 9.12 µM (inactive) | GI50 [33]: 12.6 µM (inactive) | GI50 [34]: 12.4 µM (inactive) | GI50 [35]: 13 µM (inactive) | GI50 [36]: 3.06 µM (inactive) | GI50 [37]: 14.2 µM (inactive) | GI50 [38]: 16.1 µM (inactive) | GI50 [39]: 3.32 µM (inactive) | GI50 [40]: 16.6 µM (inactive) | GI50 [41]: 10.3 µM (inactive) | GI50 [42]: 35.8 µM (inactive) | GI50 [43]: 7.35 µM (inactive) | GI50 [44]: 22.7 µM (inactive) | GI50 [45]: 8.45 µM (inactive) | GI50 [46]: 3.46 µM (inactive) | GI50 [47]: 5.09 µM (inactive) | GI50 [48]: 7.28 µM (inactive) | GI50 [49]: 10.2 µM (inactive) | GI50 [50]: 12.9 µM (inactive) | GI50 [51]: 5.89 µM (inactive) | GI50 [52]: 16.9 µM (inactive) | GI50 [53]: 6.68 µM (inactive) | GI50 [54]: 7.21 µM (inactive) | GI50 [55]: 6.28 µM (inactive) | GI50 [56]: 5.32 µM (inactive) | GI50 [57]: 7.23 µM (inactive) | GI50 [58]: 3.24 µM (inactive)

COC(=O)/C=C1\C(=O)C=C2[C@@H]3C[C@H]4C[C@H](CC[C@@]4(C)N21)C3(C)NC(C)=O (stereo partly specified)
GI50 [1]: 23.6 µM (inactive) | GI50 [2]: 20.7 µM (inactive) | GI50 [3]: 1.42 µM (inactive) | GI50 [4]: 24.2 µM (inactive) | GI50 [5]: 15.6 µM (inactive) | GI50 [6]: 25.9 µM (inactive) | GI50 [7]: 5.9 µM (inactive) | GI50 [8]: 29.8 µM (inactive) | GI50 [9]: 2.8 µM (inactive) | GI50 [10]: 16 µM (inactive) | GI50 [11]: 17.6 µM (inactive) | GI50 [12]: 15.1 µM (inactive) | GI50 [13]: 25.5 µM (inactive) | GI50 [14]: 8.97 µM (inactive) | GI50 [15]: 3.12 µM (inactive) | GI50 [16]: 7.66 µM (inactive) | GI50 [17]: 11.8 µM (inactive) | GI50 [18]: 26.9 µM (inactive) | GI50 [19]: 8.91 µM (inactive) | GI50 [20]: 16 µM (inactive) | GI50 [21]: 18.4 µM (inactive) | GI50 [22]: 7.23 µM (inactive) | GI50 [23]: 7.18 µM (inactive) | GI50 [24]: 11.4 µM (inactive) | GI50 [25]: 17 µM (inactive) | GI50 [26]: 15.7 µM (inactive) | GI50 [27]: 19 µM (inactive) | GI50 [28]: 11.5 µM | GI50 [29]: 13.2 µM (inactive) | GI50 [30]: 20 µM (inactive) | GI50 [31]: 11.7 µM (inactive) | GI50 [32]: 19.5 µM (inactive) | GI50 [33]: 6.68 µM (inactive) | GI50 [34]: 17.6 µM (inactive) | GI50 [36]: 18.1 µM (inactive) | GI50 [37]: 4.51 µM (inactive) | GI50 [38]: 11.1 µM (inactive) | GI50 [39]: 18.8 µM (inactive) | GI50 [40]: 5.55 µM (inactive) | GI50 [41]: 11.2 µM (inactive) | GI50 [42]: 18 µM (inactive) | GI50 [59]: 17 µM (inactive) | GI50 [43]: 4.06 µM (inactive) | GI50 [44]: 10.9 µM (inactive) | GI50 [45]: 10.7 µM (inactive) | GI50 [46]: 3.33 µM (inactive) | GI50 [47]: 3.33 µM (inactive) | GI50 [48]: 5.64 µM (inactive) | GI50 [49]: 9.02 µM (inactive) | GI50 [50]: 11.1 µM (inactive) | GI50 [51]: 19.5 µM (inactive) | GI50 [52]: 26 µM (inactive) | GI50 [53]: 16.6 µM (inactive) | GI50 [54]: 26.5 µM (inactive) | GI50 [55]: 4.4 µM (inactive) | GI50 [56]: 3.51 µM (inactive) | GI50 [57]: 23.7 µM (inactive) | GI50 [58]: 8.02 µM (inactive)
